# Activity calls are given as the source filed them. No cut-off for these calls is given here.
# Key:
# [1] = Solubility of compound assessed as precipitate formation at 250 uM at pH 2 to 8 incubated for 30 mins in presence of 3 to 10 mM CaCl2 by turbidimetric assay; format: physicochemical; settings: buffer, pH 2, 0.5 h
# [2] = Solubility of compound assessed as precipitate formation at 250 uM at pH 2 to 8 incubated for 30 mins in presence of 1.25 to 10 mM MgCl2 by turbidimetric assay; format: physicochemical; settings: buffer, pH 2, 0.5 h
# [3] = Solubility of compound assessed as precipitate formation at 250 uM at pH 2 to 8 incubated for 30 mins in presence of 20 to 100 uM ZnCl2 by turbidimetric assay; format: physicochemical; settings: buffer, pH 2, 0.5 h
# Toxin B [4] = molecular target: T1, Toxin B (Clostridioides difficile, UniProt P18177); assay: Binding affinity to His6 tagged Clostridioides difficile Toxin B truncated cysteine protease domain (543 to 799 residues) extracted from Escherichia coli BL21 (DE3) assessed as dissociation constant by ITC method
# T1 sequence (P18177 whole entry, the tested form may be a part): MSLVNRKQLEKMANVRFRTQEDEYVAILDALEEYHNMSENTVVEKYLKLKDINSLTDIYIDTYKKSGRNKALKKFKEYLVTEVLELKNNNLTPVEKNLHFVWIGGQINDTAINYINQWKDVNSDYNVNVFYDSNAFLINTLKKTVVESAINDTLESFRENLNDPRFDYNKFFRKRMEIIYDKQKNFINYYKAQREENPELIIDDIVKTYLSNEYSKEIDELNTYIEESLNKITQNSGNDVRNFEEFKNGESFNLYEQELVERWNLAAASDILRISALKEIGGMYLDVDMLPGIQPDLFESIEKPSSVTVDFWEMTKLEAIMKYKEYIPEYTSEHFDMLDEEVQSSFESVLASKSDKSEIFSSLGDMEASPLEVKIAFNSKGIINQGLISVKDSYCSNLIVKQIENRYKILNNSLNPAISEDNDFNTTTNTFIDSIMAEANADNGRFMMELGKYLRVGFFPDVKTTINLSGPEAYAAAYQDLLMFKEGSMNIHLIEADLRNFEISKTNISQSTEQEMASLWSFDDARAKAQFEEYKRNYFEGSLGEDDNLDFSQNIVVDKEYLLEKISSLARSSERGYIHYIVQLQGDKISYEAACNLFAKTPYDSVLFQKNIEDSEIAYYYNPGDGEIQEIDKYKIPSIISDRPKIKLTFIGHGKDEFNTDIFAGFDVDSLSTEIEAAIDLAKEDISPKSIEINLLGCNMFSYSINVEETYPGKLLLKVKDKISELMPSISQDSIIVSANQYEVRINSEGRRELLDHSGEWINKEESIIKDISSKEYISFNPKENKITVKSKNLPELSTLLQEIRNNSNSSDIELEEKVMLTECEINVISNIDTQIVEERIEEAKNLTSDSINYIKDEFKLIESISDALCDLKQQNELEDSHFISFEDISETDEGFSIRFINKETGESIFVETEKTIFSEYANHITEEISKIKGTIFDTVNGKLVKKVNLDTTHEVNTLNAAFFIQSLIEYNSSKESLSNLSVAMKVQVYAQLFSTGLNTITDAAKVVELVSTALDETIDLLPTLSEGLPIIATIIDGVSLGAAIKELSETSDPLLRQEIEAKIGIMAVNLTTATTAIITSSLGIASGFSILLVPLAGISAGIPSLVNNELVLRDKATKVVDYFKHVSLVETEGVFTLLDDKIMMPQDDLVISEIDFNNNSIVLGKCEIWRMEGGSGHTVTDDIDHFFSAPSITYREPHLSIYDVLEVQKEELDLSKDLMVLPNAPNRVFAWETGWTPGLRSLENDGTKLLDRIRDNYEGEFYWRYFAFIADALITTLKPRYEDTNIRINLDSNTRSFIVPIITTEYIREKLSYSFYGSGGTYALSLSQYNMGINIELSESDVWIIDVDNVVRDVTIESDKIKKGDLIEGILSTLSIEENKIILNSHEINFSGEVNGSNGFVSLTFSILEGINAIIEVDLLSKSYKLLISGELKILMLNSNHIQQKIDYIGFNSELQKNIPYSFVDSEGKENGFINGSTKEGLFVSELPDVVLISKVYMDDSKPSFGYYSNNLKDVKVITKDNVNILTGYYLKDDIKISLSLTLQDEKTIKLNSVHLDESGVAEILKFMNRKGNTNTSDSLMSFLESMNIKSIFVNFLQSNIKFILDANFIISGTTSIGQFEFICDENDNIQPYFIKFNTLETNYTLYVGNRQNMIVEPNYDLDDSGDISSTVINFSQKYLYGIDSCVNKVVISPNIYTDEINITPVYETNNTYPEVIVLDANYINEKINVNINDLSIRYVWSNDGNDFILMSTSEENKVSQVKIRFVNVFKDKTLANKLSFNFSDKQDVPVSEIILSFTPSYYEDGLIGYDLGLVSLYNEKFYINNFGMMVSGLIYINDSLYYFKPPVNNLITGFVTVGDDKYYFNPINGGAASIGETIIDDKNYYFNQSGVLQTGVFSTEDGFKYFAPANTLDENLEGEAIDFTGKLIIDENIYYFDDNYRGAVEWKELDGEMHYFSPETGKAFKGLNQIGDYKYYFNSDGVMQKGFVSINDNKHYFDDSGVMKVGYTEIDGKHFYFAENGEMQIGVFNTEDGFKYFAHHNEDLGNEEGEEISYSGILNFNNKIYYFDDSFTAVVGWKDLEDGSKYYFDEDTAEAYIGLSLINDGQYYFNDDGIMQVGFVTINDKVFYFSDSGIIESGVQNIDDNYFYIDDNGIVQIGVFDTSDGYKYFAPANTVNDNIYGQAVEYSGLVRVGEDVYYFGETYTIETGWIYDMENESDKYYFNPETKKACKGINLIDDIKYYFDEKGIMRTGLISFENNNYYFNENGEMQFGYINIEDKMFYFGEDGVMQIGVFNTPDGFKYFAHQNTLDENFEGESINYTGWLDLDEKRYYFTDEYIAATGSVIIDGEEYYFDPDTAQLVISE
# [5] = molecular target: Toxin B (Clostridioides difficile) (UniProt P18177); assay: Allosteric activation of Clostridioides difficile Toxin B assessed as induction of autoproteolysis by measuring increase in TcdB cleavage at 50 uM measured after 3 hrs by silver staining based SDS-PAGE analysis relative to control; settings: filed as positive allosteric modulator
# Chain of Toxin B (Clostridioides difficile) (P18177 whole entry, the tested form may be a part): as above
# [6] = molecular target: Toxin B (Clostridioides difficile) (UniProt P18177); assay: Allosteric activation of Clostridioides difficile Toxin B assessed as induction of autoproteolysis by measuring increase in TcdB cleavage at 50 uM incubated for 3 hrs in presence of 10 mM CaCl2 by silver staining based SDS-PAGE analysis relative to control
# [7] = molecular target: Toxin B (Clostridioides difficile) (UniProt P18177); assay: Allosteric activation of Clostridioides difficile Toxin B assessed as induction of autoproteolysis by measuring increase in TcdB cleavage at 50 uM incubated for 3 hrs in presence of 10 mM MgCl2 by silver staining based SDS-PAGE analysis
# [8] = molecular target: Toxin B (Clostridioides difficile) (UniProt P18177); assay: Allosteric activation of Clostridioides difficile Toxin B assessed as induction of autoproteolysis by measuring increase in TcdB cleavage at 50 uM incubated for 3 hrs in presence of 3 mM CaCl2 by silver staining based SDS-PAGE analysis
# [9] = molecular target: Toxin B (Clostridioides difficile) (UniProt P18177); assay: Allosteric activation of Clostridioides difficile Toxin B assessed as induction of autoproteolysis by measuring increase in TcdB cleavage at 50 uM incubated for 3 hrs in presence of 1.25 mM MgCl2 by silver staining based SDS-PAGE analysis
# [10] = molecular target: Toxin B (Clostridioides difficile) (UniProt P18177); assay: Allosteric activation of Clostridioides difficile Toxin B assessed as induction of autoproteolysis by measuring increase in TcdB cleavage at 50 uM incubated for 3 hrs in presence of 100 uM ZnCl2 by silver staining based SDS-PAGE analysis
# [11] = Metal chelating activity assessed as compound-Ca2+ complex formation by measuring reduction in free cation concentration at 200 uM in presence of 200 uM CaCl2 by colorimetric assay
# [12] = Metal chelating activity assessed as compound-Mg2+ complex formation by measuring reduction in free cation concentration at 200 uM in presence of 200 uM MgCl2 by colorimetric assay
# Toxin B [13] = molecular target: T1, Toxin B; assay: Binding affinity to His6 tagged Clostridioides difficile Toxin B truncated cysteine protease domain (543 to 799 residues) extracted from Escherichia coli BL21 (DE3) assessed as dissociation constant in presence of 10 mM Ca2+ by ITC method
# Toxin B [14] = molecular target: T1, Toxin B; assay: Allosteric activation of Clostridioides difficile Toxin B assessed as induction of autoproteolysis measured after 3 hrs by Western blot based extent cleavage assay
# Toxin B [15] = molecular target: T1, Toxin B; assay: Allosteric activation of Clostridioides difficile Toxin B assessed as induction of autoproteolysis measured after 3 hrs in presence of CaCl2, MgCl2, ZnCl2 by Western blot based extent cleavage assay
# [16] = molecular target: Toxin B (Clostridioides difficile) (UniProt P18177); assay: Allosteric activation of Clostridioides difficile Toxin B assessed as induction of autoproteolysis by measuring maximal extent cleavage measured after 3 hrs by Western blot based extent cleavage assay relative to control; settings: filed as positive allosteric modulator
# [17] = molecular target: Toxin B (Clostridioides difficile) (UniProt P18177); assay: Stabilization of His6 tagged Clostridioides difficile Toxin B truncated cysteine protease domain (543 to 799 residues) extracted from Escherichia coli BL21 (DE3) assessed as change in melting temperature by SYPRO Orange dye based differential scanning fluorometry analysis
# [18] = molecular target: Toxin B (Clostridioides difficile) (UniProt P18177); assay: Stabilization of His6 tagged Clostridioides difficile apo-Toxin B truncated cysteine protease domain (543 to 799 residues) extracted from Escherichia coli BL21 (DE3) assessed as chemical shift perturbation by measuring increase in number of peaks by 1H-15N-HSQC NMR analysis (reference value: 141)
# [19] = molecular target: Toxin B (Clostridioides difficile) (UniProt P18177); assay: Stabilization of His6 tagged Clostridioides difficile holo-Toxin B truncated cysteine protease domain (543 to 799 residues) extracted from Escherichia coli BL21 (DE3) assessed as peaks with change in chemical shift perturbation at 350 uM by 1H-15N-HSQC NMR analysis relative to control
# [20] = molecular target: Toxin B (Clostridioides difficile) (UniProt P18177); assay: (§1) Competitive binding affinity to His6 tagged Clostridioides difficile Toxin B truncated cysteine protease domain (543 to 799 residues) extracted from Escherichia coli BL21 (DE3) assessed as peaks with change in chemical shift perturbation by measuring residual activity at 350 uM in presence of (1R,2r,3S,4R,5s,6S)-cyclohexane-1,2,3,4,5,6-hexayl hexakis (dihydrogen phosphate) by 1H-15N-HSQC NMR analysis relative to control; settings: filed as positive allosteric modulator
# [21] = molecular target: Toxin B (Clostridioides difficile) (UniProt P18177); assay: Competitive binding affinity to His6 tagged Clostridioides difficile […]-Toxin B truncated cysteine protease domain (543 to 799 residues) extracted from Escherichia coli BL21 (DE3) assessed as peaks with change in chemical shift perturbation at 350 uM by 31P-NMR analysis
# [22] = molecular target: Toxin B (Clostridioides difficile) (UniProt P18177); assay: Binding affinity to His6 tagged Clostridioides difficile Toxin B truncated cysteine protease domain (543 to 799 residues) extracted from Escherichia coli BL21 (DE3) assessed as change in number of bound protons per binding interaction at 530 uM by ITC analysis; settings: filed as positive allosteric modulator
# [23] = molecular target: Toxin B (Clostridioides difficile) (UniProt P18177); assay: Allosteric activation of Clostridioides difficile Toxin B assessed as induction of autoproteolysis by measuring increase in TcdB cleavage measured after 3 hrs by silver staining based SDS-PAGE analysis; settings: filed as positive allosteric modulator
# [24] = Metal chelating activity assessed as compound-Ca2+ complex formation by measuring precipitation at 250 uM at pH 2 to 8 incubated for 30 mins in presence of 3 to 10 mM CaCl2 by turbidimetric assay
# [25] = Metal chelating activity assessed as compound-Mg2+ complex formation by measuring precipitation at 250 uM at pH 2 to 8 incubated for 30 mins in presence of 1.25 to 10 mM MgCl2 by turbidimetric assay
# [26] = molecular target: Toxin B (Clostridioides difficile) (UniProt P18177); assay: as §1, with “1,3,5-(Tri-O-thiophosphate)-myo-inositol-2,4,6-tri-O-sulfate” for “(1R,2r,3S,4R,5s,6S)-cyclohexane-1,2,3,4,5,6-hexayl hexakis (dihydrogen phosphate)”; settings: filed as positive allosteric modulator
# [27] = filed as positive allosteric modulator
SMILES,solubility [1],solubility [2],solubility [3],Kd (Toxin B [4]),Activity [8],Activity [9],Activity [10],Activity [11],Activity [12],Kd (Toxin B [13]),EC50 (Toxin B [14]),EC50 (Toxin B [15]),ΔTm [17],Activity [22],other results
O=S(=O)(O)O[C@@H]1[C@@H](OS(=O)(=O)O)[C@H](OS(=O)(=O)O)[C@H](OP(O)(O)=S)[C@H](OS(=O)(=O)O)[C@H]1OS(=O)(=O)O,Soluble,Soluble,Soluble,7.14 µM,–,–,–,–,–,–,–,–,–,–,–
O=S(=O)(O)O[C@H]1[C@H](OP(O)(O)=S)[C@H](OS(=O)(=O)O)[C@H](OP(O)(O)=S)[C@@H](OS(=O)(=O)O)[C@@H]1OP(O)(O)=S,Soluble,Soluble,Soluble,0.662 µM,inactive,inactive,inactive,Active,Active,2.66 µM,3.56 µM,113 µM,5.1 °C,-0.03,"Activity [5]: Active; Activity [6, 27]: 51%; Activity [7, 27]: 42%; Activity [16]: 117%; Activity [18]: 208; Activity [19]: 49%; Activity [20]: 7%; Activity [21, 27]: Active"
O=S(=O)(O)O[C@H]1[C@H](OP(O)(O)=S)[C@@H](OS(=O)(=O)O)[C@H](OP(O)(O)=S)[C@@H](OS(=O)(=O)O)[C@H]1OP(O)(O)=S,–,–,–,2.26 µM,–,–,–,–,–,5.37 µM,–,–,–,-0.01,–
O=P(O)(O)O[C@@H]1[C@@H](OP(=O)(O)O)[C@H](OP(=O)(O)O)[C@H](OCc2ccccc2)[C@H](OP(=O)(O)O)[C@H]1OP(=O)(O)O,–,–,–,–,–,–,–,–,–,–,–,–,–,–,Activity [23]: Active
O=P(O)(O)O[C@H]1[C@H](OP(=O)(O)O)[C@@H](OP(=O)(O)O)[C@H](OP(=O)(O)O)[C@@H](OP(=O)(O)O)[C@H]1OP(=O)(O)O [PHYTIC ACID],–,–,–,1.36 µM,inactive,inactive,inactive,–,–,–,8.39 µM,536 µM,3.3 °C,-1.28,Activity [6]: 6%; Activity [7]: 23%; Activity [24]: Active; Activity [25]: Active; Activity [16]: 98%; Activity [18]: 193; Activity [26]: 47%; Activity [21]: inactive
O=S(=O)(O)O[C@@H]1[C@@H](OP(O)(O)=S)[C@H](OS(=O)(=O)O)[C@H](OS(=O)(=O)O)[C@H](OS(=O)(=O)O)[C@H]1OP(O)(O)=S,Soluble,Soluble,Soluble,2.2 µM,inactive,inactive,inactive,Active,Active,4.69 µM,27.1 µM,557 µM,5.3 °C,0.11,–
O=S(=O)(O)O[C@H]1[C@@H](OS(=O)(=O)O)[C@H](OS(=O)(=O)O)[C@@H](OP(O)(O)=S)[C@H](OS(=O)(=O)O)[C@H]1OS(=O)(=O)O,–,–,–,2.19 µM,inactive,inactive,inactive,Active,Active,–,–,–,3.1 °C,–,Activity [5]: Active
OP(O)(=S)O[C@H]1[C@H](OP(O)(O)=S)[C@@H](OP(O)(O)=S)[C@H](OP(O)(O)=S)[C@@H](OP(O)(O)=S)[C@H]1OP(O)(O)=S,Soluble,Soluble,Soluble,0.184 µM,inactive,inactive,inactive,Active,Active,–,2.31 µM,657 µM,5.6 °C,–,–
